Source: patent US11242337B2, “Compounds useful for treating gastrointestinal tract disorders” (Ardelyx, Inc., priority 2017, dated 2022)
Counter-ions that a name gives are not always drawn.

Key:
[1] = biological target: T1, NHE3 (Homo sapiens, UniProt P48764); test: Cell-based assay of NHE-3 activity (persistent inhibition), human; details: human Persistence, 60 min incubation then washout
T1 construct: expressed in transfected cells
T1 sequence (P48764 26-834): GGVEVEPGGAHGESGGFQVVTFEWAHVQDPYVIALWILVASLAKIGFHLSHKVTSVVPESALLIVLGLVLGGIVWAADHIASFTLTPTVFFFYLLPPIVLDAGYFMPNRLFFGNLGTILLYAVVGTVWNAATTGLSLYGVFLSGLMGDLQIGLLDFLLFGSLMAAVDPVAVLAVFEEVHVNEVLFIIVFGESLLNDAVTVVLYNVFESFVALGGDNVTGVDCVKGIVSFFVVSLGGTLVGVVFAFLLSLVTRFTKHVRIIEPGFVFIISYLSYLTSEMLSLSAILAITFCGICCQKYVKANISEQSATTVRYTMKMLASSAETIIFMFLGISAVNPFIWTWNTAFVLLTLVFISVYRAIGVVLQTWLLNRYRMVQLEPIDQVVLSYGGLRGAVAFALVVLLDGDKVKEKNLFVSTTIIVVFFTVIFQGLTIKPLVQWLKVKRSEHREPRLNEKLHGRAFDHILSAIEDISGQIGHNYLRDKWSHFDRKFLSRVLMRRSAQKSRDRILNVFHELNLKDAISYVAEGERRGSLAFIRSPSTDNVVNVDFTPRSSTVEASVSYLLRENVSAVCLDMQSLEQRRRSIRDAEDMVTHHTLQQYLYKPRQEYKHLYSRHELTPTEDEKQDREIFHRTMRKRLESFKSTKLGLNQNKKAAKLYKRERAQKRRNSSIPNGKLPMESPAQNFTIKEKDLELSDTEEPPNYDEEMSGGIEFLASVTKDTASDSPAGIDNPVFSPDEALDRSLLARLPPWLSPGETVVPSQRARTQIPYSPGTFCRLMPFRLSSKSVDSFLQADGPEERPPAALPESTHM
T1 sequence (Q99653 2-195 partner limits assumed): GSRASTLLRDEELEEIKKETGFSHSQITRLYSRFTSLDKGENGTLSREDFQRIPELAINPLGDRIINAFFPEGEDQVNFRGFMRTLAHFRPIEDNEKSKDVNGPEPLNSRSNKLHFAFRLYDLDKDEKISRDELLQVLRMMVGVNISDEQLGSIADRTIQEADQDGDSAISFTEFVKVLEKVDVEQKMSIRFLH
Procedure, shortened: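 PS120 fibroblasts expressing human NHE3 with NHERF2 exposed to 0-30 μM compound for 60 min at RT, then washed out; cells acid-loaded by NH4Cl prepulse with BCECF-AM and Na+-free buffer. Na+-driven pH recovery started 10 min post-washout; initial rate of BCECF ratio change (FLIPR) taken as activity.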

[2] = biological target: T1, NHE3; test: Cell-based assay of NHE-3 activity (pre-incubation inhibition), human; details: human Preincubation
Procedure, shortened: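 PS120 fibroblasts stably expressing human NHE3 and NHERF2, loaded 30 min at 37 °C with 5 μM BCECF-AM in NH4Cl buffer, then acidified 10 min at room temperature in Na+-free buffer with 0–30 μM compound. Initial rate of BCECF fluorescence ratio change (FLIPR) per minute taken as Na+/H+ activity.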

% inhibition [1] | pIC50 [1] | % inhibition [2] | pIC50 ([2]; 0-30 μM test compound) | IC50 ([2]; 0-30 μM test compound) [nM] | Compound | IC50 [1] [nM]
B (40-70%) | C (NHE3 pIC50 > 7) | C (>70%) | C (NHE3 pIC50 > 7) |  | COc1cc(O[C@H]2c3cc(Cl)cc(Cl)c3C[C@@H]2N2CCC[C@@H](N)C2)ccc1S(=O)(=O)NCCOCCOCCNC(=O)NCCCCNC(=O)NCCOCCOCCNS(=O)(=O)c1ccc(O[C@H]2c3cc(Cl)cc(Cl)c3C[C@@H]2N2CCC[C@@H](N)C2)cc1OC [Example 101, 1-[2-(2-[2-[(4-[[(1S,2S)-2-[(3R)-3-Aminopiperidin-1-yl]-4,6-dichloro-2,3-dihydro-1H-inden-1-yl]oxy]-2-methoxybenzene)sulfonamido]ethoxy]ethoxy)ethyl]-3-[4-([[2-(2-[2-[(4-[[(1S,2S)-2-[(3R)-3-aminopiperidin-1-yl]-4,6-dichloro-2,3-dihydro-1H-inden-1-yl]oxy]-2-methoxybenzene)sulfonamido]ethoxy]ethoxy)ethyl]carbamoyl]amino)butyl]urea] | 
C (>70%) |  | C (>70%) |  | < 100 | C[C@@H](COCCOCCNC(=O)NCCCCNC(=O)NCCOCCOC[C@H](C)NS(=O)(=O)c1ccc(O[C@H]2c3cc(Cl)cc(Cl)c3C[C@@H]2N2CCC[C@@H](N)C2)cc1)NS(=O)(=O)c1ccc(O[C@H]2c3cc(Cl)cc(Cl)c3C[C@@H]2N2CCC[C@@H](N)C2)cc1 [Example 96, 1-(2-[2-[(2S)-2-[(4-[[(1S,2S)-2-[(3R)-3-Aminopiperidin-1-yl]-4,6-dichloro-2,3-dihydro-1H-inden-1-yl]oxy]benzene)sulfonamido]propoxy]ethoxy]ethyl)-3-(4-[[(2-[2-[(2S)-2-[(4-[[(1S,2S)-2-[(3R)-3-aminopiperidin-1-yl]-4,6-dichloro-2,3-dihydro-1H-inden-1-yl]oxy]benzene)sulfonamido]propoxy]ethoxy]ethyl)carbamoyl]amino]butyl)urea; hydrochloride] | < 100
A (NHE3 < 40%) | C (NHE3 pIC50 > 7) | A (NHE3 < 40%) | A (NHE3 pIC50 < 6) |  | CN1CCCN([C@H]2Cc3c(C#N)cc(Cl)cc3[C@@H]2Oc2ccc(S(=O)(=O)N[C@H]3CCN(CCOCCNC(=O)NCCCCNC(=O)NCCOCCN4CC[C@H](NS(=O)(=O)c5ccc(O[C@H]6c7cc(Cl)cc(C#N)c7C[C@@H]6N6CCCN(C)CC6)cc5)C4)C3)cc2)CC1 [Example 128, 4-([(1S,2S)-6-Chloro-4-cyano-2-(4-methyl-1,4-diazepan-1-yl)-2,3-dihydro-1H-inden-1-yl]oxy)-N—[(S)-1-(20-[(S)-3-([4-([(1S,2S)-6-chloro-4-cyano-2-(4-methyl-1,4-diazepan-1-yl)-2,3-dihydro-1H-inden-1-yl]oxy)phenyl]sulfonamido)pyrrolidin-1-yl]-7,14-diaxo-3,18-dioxa-6,8,13,15-tetraazaicosyl)pyrrolidin-3-yl]benzenesulfonamide] | 
A (NHE3 < 40%) | C (NHE3 pIC50 > 7) | C (>70%) | C (NHE3 pIC50 > 7) |  | N#Cc1cc(Cl)cc2c1C[C@H](N1CCNCC1)[C@H]2Oc1ccc(S(N)(=O)=O)cc1 [Example 146, 4-([(1S,2S)-6-Chloro-4-cyano-2-(piperazin-1-yl)-2,3-dihydro-1H-inden-1-yl]oxy)benzenesulfonamide] | 
A (NHE3 < 40%) | C (NHE3 pIC50 > 7) | A (NHE3 < 40%) | C (NHE3 pIC50 > 7) |  | Cc1cc(S(=O)(=O)NCCOCCOCCNC(=O)NCCCCNC(=O)NCCOCCOCCNS(=O)(=O)c2ccc(O[C@H]3c4cc(Cl)cc(C#N)c4C[C@@H]3N3CCC[C@@H](N(C)C)C3)c(C)c2)ccc1O[C@H]1c2cc(Cl)cc(C#N)c2C[C@@H]1N1CCC[C@@H](N(C)C)C1 [Example 39] | 
A (NHE3 < 40%) | A (NHE3 pIC50 < 6) | C (>70%) | A (NHE3 pIC50 < 6) |  | CC(=O)N1CCN([C@H]2Cc3c(Cl)cc(Cl)cc3[C@@H]2Oc2ccc(S(=O)(=O)NCCOCCOCCNC(=O)NCCCCNC(=O)NCCOCCOCCNS(=O)(=O)c3ccc(O[C@H]4c5cc(Cl)cc(Cl)c5C[C@@H]4N4CCN(C(C)=O)CC4)cc3)cc2)CC1 [Example 74, 3-[2-(2-[2-[(4-[[(1S,2S)-2-(4-Acetylpiperazin-1-yl)-4,6-dichloro-2,3-dihydro-1H-inden-1-yl]oxy]benzene)sulfonamido]ethoxy]ethoxy)ethyl]-1-[4-([[2-(2-[2-[(4-[[(1S,2S)-2-(4-acetylpiperazin-1-yl)-4,6-dichloro-2,3-dihydro-1H-inden-1-yl]oxy]benzene)sulfonamido]ethoxy]ethoxy)ethyl]carbamoyl]amino)butyl]urea] | 
C (>70%) | C (NHE3 pIC50 > 7) | C (>70%) | C (NHE3 pIC50 > 7) |  | Cc1cc(O[C@H]2c3cc(Cl)cc(Cl)c3C[C@@H]2N2CCC[C@@H](N)C2)ccc1S(=O)(=O)NCCOCCOCCNC(=O)NCCCCNC(=O)NCCOCCOCCNS(=O)(=O)c1ccc(O[C@H]2c3cc(Cl)cc(Cl)c3C[C@@H]2N2CCC[C@@H](N)C2)cc1C [Example 102, 3-[2-(2-[2-[(4-[[(1S,2S)-2-[(3R)-3-Aminopiperidin-1-yl]-4,6-dichloro-2,3-dihydro-1H-inden-1-yl]oxy]-2-methylbenzene)sulfonamido]ethoxy]ethoxy)ethyl]-1-[4-([[2-(2-[2-[(4-[[(1S,2S)-2-[(3R)-3-aminopiperidin-1-yl]-4,6-dichloro-2,3-dihydro-1H-inden-1-yl]oxy]-2-methylbenzene)sulfonamido]ethoxy]ethoxy)ethyl]carbamoyl]amino)butyl]urea] | 
A (NHE3 < 40%) | A (NHE3 pIC50 < 6) | C (>70%) | A (NHE3 pIC50 < 6) |  | Cc1cc(S(=O)(=O)NCCOCCOCCNC(=O)NCCCCNC(=O)NCCOCCOCCNS(=O)(=O)c2ccc(O[C@H]3c4cc(Cl)cc(Cl)c4C[C@@H]3N3CCN(C(=O)N(C)C)CC3)c(C)c2)ccc1O[C@H]1c2cc(Cl)cc(Cl)c2C[C@@H]1N1CCN(C(=O)N(C)C)CC1 [Example 77, 4-[(1S,2S)-4,6-dichloro-1-[4-[(2-[2-[2-([[4-([[2-(2-[2-[(4-[[(1S,2S)-4,6-dichloro-2-[4-(dimethylcarbamoyl)piperazin-1-yl]-2,3-dihydro-1H-inden-1-yl]oxy]-3-methylbenzene)sulfonamido]ethoxy]ethoxy)ethyl]carbamoyl]amino)butyl]carbamoyl]amino)ethoxy]ethoxy]ethyl)sulfamoyl]-2-methylphenoxy]-2,3-dihydro-1H-inden-2-yl]-N,N-dimethylpiperazine-1-carboxamide; bis(trifluoroacetic acid)] | 

Compound | % inhibition [1] | pIC50 [1] | % inhibition [2] | pIC50 ([2]; 0-30 μM test compound) | IC50 ([2]; 0-30 μM test compound) [nM] | IC50 [1] [nM]
CC(C)[C@H](COCCOCCNC(=O)NCCCCNC(=O)NCCOCCOC[C@H](NS(=O)(=O)c1ccc(O[C@H]2c3cc(Cl)cc(Cl)c3C[C@@H]2N2CCC[C@@H](N)C2)cc1)C(C)C)NS(=O)(=O)c1ccc(O[C@H]2c3cc(Cl)cc(Cl)c3C[C@@H]2N2CCC[C@@H](N)C2)cc1 [Example 99, 3-(2-[2-[(2R)-2-[(4-[[(1S,2S)-2-[(3R)-3-Aminopiperidin-1-yl]-4,6-dichloro-2,3-dihydro-1H-inden-1-yl]oxy]benzene)sulfonamido]-3-methylbutoxy]ethoxy]ethyl)-1-(4-[[(2-[2-[(2R)-2-[(4-[[(1S,2S)-2-[(3R)-3-aminopiperidin-1-yl]-4,6-dichloro-2,3-dihydro-1H-inden-1-yl]oxy]benzene)sulfonamido]-3-methylbutoxy]ethoxy]ethyl)carbamoyl]amino]butyl)urea] | C (>70%) |  | C (>70%) | C (NHE3 pIC50 > 7) |  | 100 to 1000
